Source: PubChem BioAssay AID1963875 (Molecular Pharmacology Branch, DTP, NCI, 2024)
“And” between values parts separate entries of the source, which are not always exact repeats. Equal entries are not always repeated.

Tested on: KRAS-mutant PDC complex spheroid viability
Experiment: Anticancer human tumor 186277-243-T-J2-PDC patient-derived colon adenocarcinoma cell line growth inhibition [KRAS2]
Settings: for viability, T/C: stronger effect = lower value
Description: Multicellular complex tumor spheroid response to RAS pathway inhibitors in combination with a targeted agents in patient-derived cell lines with oncogenic KRAS variants from multiple cancer types
A high-throughput screen of multi-cell type tumor spheroids was designed to identify active combinations of targeted small molecules and KRAS pathway inhibitors. Complex spheroids include a stromal component modeled by human endothelial cells (HUVEC) and fibroblasts modeled by human mesenchymal stem cells (MSCs). The concentration ranges selected for each drug and investigational agent were based upon clinically achievable concentrations if the clinical Cmax of the agent was known.
Compounds. The drugs and investigational agents: BI-3406 (NSC825286), BAY-293 (NSC824723), batoprotafib (TNO155; NSC825523), sotorasib (AMG 510; NSC818433), MRTX1257 (NSC819558), elimusertib (BAY 1895344; NSC800525), molibresib (GSK525762; NSC774829), temuterkib (LY3214996; NSC803410), venetoclax (NSC766270), alisertib (NSC759677), olaparib (NSC753686), talazoparib (NSC767125), erdafitinib (NSC781556), ipatasertib (NSC767898), cabozantinib (NSC761068), nintedanib (NSC756659), abemaciclib (NSC768073), docetaxel (NSC628503), trametinib (NSC758246), and sapanisertib (NSC764658) were obtained from the National Cancer Institute (NCI) Developmental Therapeutics Program Chemical Repository. The FDA-approved anticancer drug set is available from the Developmental Therapeutics Program. […] The stock solutions were prepared in dimethyl sulfoxide (DMSO, Sigma-Aldrich, St. Louis, MO, cat. D2650) at 800-fold the tested concentration and stored at -70 degrees C prior to their use. All drugs and investigational agents were tested over a range starting from a high concentration at or near the clinical Cmax and decreasing in half-log increments. If the clinical Cmax for an agent had not been determined, the highest concentration tested was 10 microM.
Cell Culture. All cells were maintained in an incubator at 37 degrees C and 5% CO2 with 95% humidity. The PDC lines were cultured according to standard operating procedures established by the NCI PDMR (https://pdmr.cancer.gov/sops/default.htm). Briefly, all PDCs were thawed and cultured in Matrigel-coated flasks prepared with a working solution of 1X Ham's F-12 nutrient mix, without supplementation (Invitrogen, Waltham, MA, cat. 11765054), 100 U/mL penicillin-streptomycin (Invitrogen, cat. 15140122), and 2.5% Matrigel (Corning Inc., Corning, NY, cat. 354248) for the first three passages. All PDCs were cultured in complete DMEM/F-12 media containing advanced DMEM/F-12 (Invitrogen, cat. 12634028), 4.9% defined fetal bovine serum, heat inactivated (HyClone Laboratories Inc., Logan, UT, cat. SH30070.03HI), 389 ng/mL hydrocortisone (Sigma-Aldrich, cat. H4001), 9.7 ng/mL human EGF recombinant protein (Invitrogen, cat. PHG0313), 23.4 microg/mL adenine (Sigma-Aldrich, cat. A2786), 97.3 U/mL penicillin-streptomycin (Invitrogen, cat. 15140122), 1.9 mM L-glutamine (Invitrogen, cat. 25030081), and 9.7 microM Y-27632 dihydrochloride (Tocris Bioscience, Bristol, United Kingdom, cat. 1254). The PDCs were cultured in complete DMEM/F12 media without 9.7 microM Y-27632 dihydrochloride for at least two passages prior to the screen. The established cell line HOP-62 was cultured in RPMI 1640 medium, HEPES (Invitrogen, cat. 22400105) with 10% defined fetal bovine serum (HyClone Laboratories Inc., cat. SH30070.03) and 2 mM L-glutamine (Invitrogen, cat. 25030081). The pooled donor HUVEC were cultured in endothelial cell growth medium 2 (PromoCell, Heidelberg, Germany, cat. C-22011) and the hMSC were cultured in mesenchymal stem cell growth medium 2 (PromoCell, cat. C-28009). For all experiments, HUVEC and hMSC were used at passages </=5, while the malignant cell lines were used at passages </=15. […]

[1] = curve of first compound, second compound 0.1 µM
[2] = curve of first compound, second compound 0.316 µM
[3] = curve of first compound, second compound 1 µM
[4] = curve of first compound, second compound 3.16 µM
[5] = curve of first compound, second compound 10 µM
[6] = second compound 0.1 µM, first compound 0.0316 µM
[7] = second compound 0.1 µM, first compound 0.1 µM
[8] = second compound 0.1 µM, first compound 0.316 µM
[9] = second compound 0.1 µM, first compound 1 µM
[10] = second compound 0.1 µM, first compound 3.16 µM
[11] = second compound 0.1 µM, first compound 10 µM
[12] = second compound 0.316 µM, first compound 0.0316 µM
[13] = second compound 0.316 µM, first compound 0.1 µM
[14] = second compound 0.316 µM, first compound 0.316 µM
[15] = second compound 0.316 µM, first compound 1 µM
[16] = second compound 0.316 µM, first compound 3.16 µM
[17] = second compound 0.316 µM, first compound 10 µM
[18] = second compound 1 µM, first compound 0.0316 µM
[19] = second compound 1 µM, first compound 0.1 µM
[20] = second compound 1 µM, first compound 0.316 µM
[21] = second compound 1 µM, first compound 1 µM
[22] = second compound 1 µM, first compound 3.16 µM
[23] = second compound 1 µM, first compound 10 µM
[24] = second compound 3.16 µM, first compound 0.0316 µM
[25] = second compound 3.16 µM, first compound 0.1 µM
[26] = second compound 3.16 µM, first compound 0.316 µM
[27] = second compound 3.16 µM, first compound 1 µM
[28] = second compound 3.16 µM, first compound 3.16 µM
[29] = second compound 3.16 µM, first compound 10 µM
[30] = second compound 10 µM, first compound 0.0316 µM
[31] = second compound 10 µM, first compound 0.1 µM
[32] = second compound 10 µM, first compound 0.316 µM
[33] = second compound 10 µM, first compound 1 µM
[34] = second compound 10 µM, first compound 3.16 µM
[35] = second compound 10 µM, first compound 10 µM
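Throughout, for viability, T/C: viability read after seven days of compound exposure; 100% = DMSO vehicle-treated spheroids so lower means less viable.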

CC1OCC2(CCN(c3cnc(Sc4ccnc(N)c4Cl)c(N)n3)CC2)C1N (stereo not given) + C=CC(=O)N1CCN(c2nc(=O)n(-c3c(C)ccnc3C(C)C)c3nc(-c4c(O)cccc4F)c(F)cc23)C(C)C1
IC50 [1]: > 10 µM
IC50 [2]: > 10 µM
IC50 [3]: > 10 µM
IC50 [4]: > 10 µM
IC50 [5]: 0.449 µM
viability, T/C [6]: 99.3%
viability, T/C [7]: 97%
viability, T/C [8]: 99.2%
viability, T/C [9]: 105%
viability, T/C [10]: 104%
viability, T/C [11]: 107%
viability, T/C [12]: 99.9%
viability, T/C [13]: 93.2%
viability, T/C [14]: 96.1%
viability, T/C [15]: 99.4%
viability, T/C [16]: 101%
viability, T/C [17]: 102%
viability, T/C [18]: 101%
viability, T/C [19]: 99%
viability, T/C [20]: 93.4%
viability, T/C [21]: 90.1%
viability, T/C [22]: 94.4%
viability, T/C [23]: 80.2%
viability, T/C [24]: 80.4%
viability, T/C [25]: 87.2%
viability, T/C [26]: 76.6%
viability, T/C [27]: 82.9%
viability, T/C [28]: 80.5%
viability, T/C [29]: 62.8%
viability, T/C [30]: 53.9%
viability, T/C [31]: 52.8%
viability, T/C [32]: 56.4%
viability, T/C [33]: 40.7%
viability, T/C [34]: 22.7%
viability, T/C [35]: 19.5%

C=CC(=O)N1CCN(c2nc(=O)n(-c3c(C)ccnc3C(C)C)c3nc(-c4c(O)cccc4F)c(F)cc23)C(C)C1 (stereo not given)
viability, T/C (compound 0.1 µM): 98.1% [middle of 17 runs]
viability, T/C (compound 1 µM): 96.4% [middle of 17 runs]
IC50 (compound alone, run of 07/12/2021): > 10 µM and 9.92 µM and 2.89 µM
IC50 (compound alone, run of 07/19/2021): > 10 µM and 8.52 µM
IC50 (compound alone, run of 07/26/2021): > 10 µM

CC(=O)OC12COC1CC(O)C1(C)C(=O)C(O)C3=C(C)C(OC(=O)C(O)C(NC(=O)OC(C)(C)C)c4ccccc4)CC(O)(C(OC(=O)c4ccccc4)C21)C3(C)C (stereo not given) + CNCc1ccccc1-c1csc(C(C)Nc2nc(C)nc3cc(OC)c(OC)cc23)c1
IC50 [1]: < 0.01 µM
IC50 [2]: < 0.01 µM
IC50 [3]: < 0.01 µM
IC50 [4]: < 0.01 µM
IC50 [5]: < 0.01 µM
viability, T/C (second compound 0.1 µM, first compound 0.01 µM): 4.85%
viability, T/C [6]: 2.89%
viability, T/C [7]: 2.72%
viability, T/C [8]: 2.61%
viability, T/C [9]: 2.94%
viability, T/C [10]: 3.13%
viability, T/C (second compound 0.316 µM, first compound 0.01 µM): 4.19%
viability, T/C [12]: 2.44%
viability, T/C [13]: 2.68%
viability, T/C [14]: 2.5%
viability, T/C [15]: 2.71%
viability, T/C [16]: 3.02%
viability, T/C (second compound 1 µM, first compound 0.01 µM): 4.69%
viability, T/C [18]: 3.7%
viability, T/C [19]: 3.39%
viability, T/C [20]: 3.25%
viability, T/C [21]: 3.43%
viability, T/C [22]: 3.79%
viability, T/C (second compound 3.16 µM, first compound 0.01 µM): 6.31%
viability, T/C [24]: 0.05%
viability, T/C [25]: 0.02%
viability, T/C [26]: 0.03%
viability, T/C [27]: 0.05%
viability, T/C [28]: 3%
viability, T/C (second compound 10 µM, first compound 0.01 µM): 0.13%
viability, T/C [30]: 0.1%
viability, T/C [31]: 0.08%
viability, T/C [32]: 0.33%
viability, T/C [33]: 3.35%
viability, T/C [34]: 0.58%

COC(=O)c1ccc2c(C(=Nc3ccc(N(C)C(=O)CN4CCN(C)CC4)cc3)c3ccccc3)c(O)[nH]c2c1 + C=CC(=O)N1CCN(c2nc(OCC3CCCN3C)nc3c2CCN(c2cccc4cccc(C)c24)C3)CC1CC#N
IC50 (curve of first compound, second compound 0.0316 µM): 1.89 µM
IC50 [1]: 0.732 µM
IC50 [2]: 0.949 µM
IC50 [3]: 0.446 µM
IC50 [4]: < 0.0316 µM
viability, T/C (second compound 0.0316 µM, first compound 0.0316 µM): 103%
viability, T/C (second compound 0.0316 µM, first compound 0.1 µM): 104%
viability, T/C (second compound 0.0316 µM, first compound 0.316 µM): 113%
viability, T/C (second compound 0.0316 µM, first compound 1 µM): 85.3%
viability, T/C (second compound 0.0316 µM, first compound 3.16 µM): 21.7%
viability, T/C (second compound 0.0316 µM, first compound 10 µM): 13.4%
viability, T/C [6]: 91.5%
viability, T/C [7]: 92.3%
viability, T/C [8]: 103%
viability, T/C [9]: 33%
viability, T/C [10]: 12.6%
viability, T/C [11]: 7.16%
viability, T/C [12]: 97.8%
viability, T/C [13]: 109%
viability, T/C [14]: 102%
viability, T/C [15]: 47.5%
viability, T/C [16]: 7.39%
viability, T/C [17]: 5.61%
viability, T/C [18]: 105%
viability, T/C [19]: 86.3%
viability, T/C [20]: 65.3%
viability, T/C [21]: 20.9%
viability, T/C [22]: 1.39%
viability, T/C [23]: 1.01%
viability, T/C [24]: 0.29%
viability, T/C [25]: 0.26%
viability, T/C [26]: 0.23%
viability, T/C [27]: 0.11%
viability, T/C [28]: 0.77%
viability, T/C [29]: 0.09%

CCNC(=O)CC1N=C(c2ccc(Cl)cc2)c2cc(OC)ccc2-n2c(C)nnc21 (stereo not given) + CNCc1ccccc1-c1csc(C(C)Nc2nc(C)nc3cc(OC)c(OC)cc23)c1
IC50 [1]: > 10 µM
IC50 [2]: > 10 µM
IC50 [3]: 5.55 µM
IC50 [4]: 0.379 µM
IC50 [5]: < 0.0316 µM
viability, T/C [6]: 106%
viability, T/C [7]: 110%
viability, T/C [8]: 123%
viability, T/C [9]: 149%
viability, T/C [10]: 111%
viability, T/C [11]: 70.6%
viability, T/C [12]: 106%
viability, T/C [13]: 111%
viability, T/C [14]: 138%
viability, T/C [15]: 127%
viability, T/C [16]: 84.9%
viability, T/C [17]: 58.1%
viability, T/C [18]: 98.9%
viability, T/C [19]: 112%
viability, T/C [20]: 146%
viability, T/C [21]: 106%
viability, T/C [22]: 62.3%
viability, T/C [23]: 37.6%
viability, T/C [24]: 98.6%
viability, T/C [25]: 108%
viability, T/C [26]: 59.2%
viability, T/C [27]: 1.92%
viability, T/C [28]: 0.58%
viability, T/C [29]: 0.76%
viability, T/C [30]: 0.22%
viability, T/C [31]: 0.22%
viability, T/C [32]: 0.17%
viability, T/C [33]: 0.12%
viability, T/C [34]: 0.11%
viability, T/C [35]: 0.34%
